Results: US10137162B1, “Gastroprotective extracts of Sonchus oleraceus L” (KING SAUD UNIVERSITY, priority 2018, dated 2018)

Experiments:
[1] = test system: ulcerative colitis induced by acetic acid; experiment: acetic acid-induced ulcerative colitis; type: in vivo, Male Wistar rats; conditions: 0.1 mg/kg oral once daily, 5 days
Description: All medications were administered orally, once daily for 5 consecutive days and the first dose was administered about 2 h after ulcerative colitis induction by about 2 mL (4%, v/v) acetic acid in saline. Ulcer indices (mm) were calculated as the sum of the total length of long ulcers and petechial lesions in each group of rats divided by its number. All values were expressed as mean+S.D. Comparisons between means were carried out using a one-way ANOVA test followed by the Tukey HSD test using SPSS, version 14 (SPSS, Chicago, Ill.). Differences at p<0.05 were considered statistically significant.

[2] = test system: absolute ethanol-induced ulcer; experiment: absolute ethanol-induced ulcer model (gastroprotective activity); type: in vivo, Male Wistar rats; conditions: 20 mg/kg oral
Description: The absolute ethanol-induced ulcer model was used for evaluation of gastroprotective activity. Groups of 6 Male Wistar rats were used. Treated groups received either total alcohol extracts (SA or SR) at doses of about 250 mg/kg or about 500 mg/kg. […] A treatment group received Omeprazole (about 20 mg/kg) and a control group received water (about 5 mL/kg). All treatments were administered orally to all groups. […] After one hour all rats were sacrificed, the stomachs were rapidly removed, opened along their greater curvature, and gently rinsed under running tap water. The number and severity of ulcers were visually counted and the ulcer index was calculated. Ulcer indices (mm) were calculated as the sum of the total length of long ulcers and petechial lesions in each group of rats divided by its number. Percent protection was determined according to the following formula: [formula] All values were expressed as mean+S.D. Comparisons between means were carried out using a one-way ANOVA test followed by the Tukey HSD test using SPSS, version 14 (SPSS, Chicago, Ill.). Differences at p<0.05 were considered statistically significant.

| SMILES | % protection [1] [%] | Score ([2]; 30 min before ethanol) | % protection ([2]; ethanol-induced ulcer) [%] |
| --- | --- | --- | --- |
| C[C@@H]1C[C@H]2[C@@H]3CCC4=CC(=O)C=C[C@]4(C)[C@@]3(F)[C@@H](O)C[C@]2(C)[C@@]1(O)C(=O)CO [Dexamethasone, dexamethasone] | 66.36 |  |  |
| COc1ccc2[nH]c([S+]([O-])Cc3ncc(C)c(OC)c3C)nc2c1 (stereo not drawn) [Omeprazole] |  | 2.50 | 45.83 |
